{
  "source": "paper PMC6934184",
  "about": "“Selective DNA-PKcs inhibition extends the therapeutic index of localized radiotherapy and chemotherapy” (The Journal of Clinical Investigation, 2019)",
  "key": {"[1]": {"test_system": "A549 subcutaneous xenografts", "experiment": "subcutaneous A549 xenograft with localized radiation", "assay_type": "in vivo, mouse", "settings": "NU5455 30 mg/kg oral 30 min before 10 Gy", "description": "Subcutaneous non–small cell lung cancer xenografts were generated in CD-1 nude or BALB/c nude mice using A549 and Calu-6 cells, respectively, as previously described ([53]). When tumors reached 100 mm^3, mice were randomized into 4 groups (n = 7–9 per group) to receive (a) vehicle (orally) 30 minutes before mock radiation, (b) NU5455 (30 mg/kg orally) 30 minutes before mock radiation, (c) targeted tumor radiation at a single dose of 3.3 or 10 Gy, or (d) NU5455 (30 mg/kg orally) 30 minutes before 3.3 Gy or 10 Gy targeted tumor radiation. For targeted irradiation of subcutaneous tumors, anesthetized mice were restrained in a lead-shielded container with only the tumor exposed, and x-ray radiation applied using an RS320 irradiation system (Gulmay Medical) at a dose rate of 1.82 Gy/min. […]\nNSCLC subcutaneous xenografts were generated as previously described ( 53). […] Mouse weights and tumor volumes (1/2 x length x width x depth) were measured three times a week.\nTargeted radiotherapy in subcutaneous and orthotopic NSCLC xenograft models When subcutaneous xenografts reached 100 mm3, mice were randomized into four groups (n = 7 - 11/group): (i) N-Methyl-2-pyrrolidone (NMP): 30% Encapsin : PEG400 (1:6:3 v/v/v) vehicle p.o. 30 minutes prior to mock radiation. […] The remaining mice were monitored for tumor growth until the sizes of tumo rs reached 400 mm 3 or up to 38 days after initiation of […]"}, "HAP-1 DNA-PK–null cells": {"test_system": "HAP-1 DNA-PK–null cells", "experiment": "clonogenic survival with IR", "assay_type": "cell-based, human", "settings": "5 μM concomitant", "description": "(§1) Exponentially growing HAP-1 DNA-PK proficient or deficient cells were seeded into 6-well plates and allowed to re-attach. Cells were then incubated with vehicle (DMSO) or NU5455 (5 µM) 1 hour prior to irradiation and for a further 24 hours post-irradiation. Cells were then washed in PBS and incubated in drug-free medium to allow for colony formation.\n(§2) To quantify the number of proliferating versus confluent cells, cells were pulsed with 5-ethynyl-2’-deoxyuridine (EdU), and labeled using the Click-iT Plus EdU Alexa Fluor 647 Flow Cytometry Assay Kit together with FxCycle Violet Stain to label DNA (both Thermo Fisher) following the manufacturer’s instructions. Samples of cells taken from tho se used in the clonogenic assay were used to confirm the percentage of cells in each cell cycle phase.\n(§3) Samples were acquired on a Symphony A5 flow cytometer (Becton Dickinson, UK).\n(§4) Cell cycle phase status was also confirmed by microscopy, using cells grown on coverslips i n 6-well plates. […] Coverslips were mounted using Prolong Glass with NucBlue (ThermoFisher) and images were acquired on the Leica TCS SP8 confocal fluorescence […]\n(§5) Treated cells were fixed with 10% (w/v) trichloroacetic acid (Fisher) at 4°C overnight. Cells were stained with sulphorhodamine B (SRB, 0.4% (w/v) in water), and cell density quantified"}, "[2]": {"test_system": "HAP-1 cells that express 1 copy of PRKDC", "experiment": "clonogenic survival with IR", "assay_type": "cell-based, human", "settings": "5 μM concomitant", "description": "as §1, §2, §3, §4, §5"}},
  "data": [
    {"smiles": "CN(C(=O)CN1CCOCC1)c1ccc2sc3c(-c4cccc5c(=O)cc(N6CC7CCC(C6)O7)oc45)cccc3c2c1", "note": "[NU5455]", "values": [
      {"measurement": "antitumor activity with radiation", "setting": "[1]", "value": "enhanced the antitumor activity"},
      {"measurement": "response to IR (clonogenic)", "setting": "HAP-1 DNA-PK–null cells", "value": "did not alter the response"},
      {"measurement": "clonogenic cell-killing effect of 1–4 Gy IR", "setting": "[2]", "value": "markedly increased"}
    ]}
  ]
}
